Tests used:
rat leukaemia L 5222 = experiment: Chemotherapeutic activity against rat leukaemia L 5222 (cures); type: in vivo; settings: for L 5222 cures %: 50% of the acute LD50 i.p., treatment on day 6 after transplantation of 5 × 10^6 cells, rats surviving 60 days after treatment considered cured
Source text: (§1) The chemotherapeutic activity of Compounds 1 to 8 against rat leukaemia L 5222 and s.c. Walker carcinosarcoma is shown in the accompanying Table II, together with that of still another BCNU analog and of BCNU itself.
(§2) The chemotherapeutic activity of Compounds 1 to 8,
(§3) another analog of BCNU, and BCNU against rat leukaemia
(§4) L 5222 and s.c. Walker carcinosarcoma
(§5) ^1 50% of the acute LD50 were given i.p.
^2 Treatment on day 6 after transplantation of 5 × 10^6
^3 Rats surviving 60 days after treatment were considered cured.

[1] = system: s.c. Walker carcinosarcoma; experiment: Chemotherapeutic activity against s.c. Walker carcinosarcoma (tumor weight inhibition); type: in vivo, rat (Sprague Dawley); settings: for s.c. Walker T.W.I.% (tumor weight inhibition): 50% of the acute LD50 i.p., treatment on day 4 after transplantation, T.W.I. on day 8, 10 Sprague Dawley rats per group
Source text: as §1, §2, §3, §4, §5
^4 Treatment on day 4 after transplantation. Each group consisted of
10 Sprague Dawley vats.
^5 T.W.I. corresponds to tumor weight inhibition in % on day 8,?

Stability = type: physicochemical; settings: liquid compounds
[2] = system: autochthonic DMBA-induced mammary carcinoma; experiment: Animal test against autochthonic DMBA-induced mammary carcinoma; type: in vivo, rat; settings: in words; for activity against autochthonic DMBA-induced mammary carcinoma relative to Adriamycin / BCNU: comparison with Adriamycin (and BCNU)
[3] = Solubility in water (or tissue fluids); type: physicochemical; settings: comparison with BCNU, in words
Delayed toxicity = type: in vivo; settings: contrary to BCNU; preliminary

SMILES | L 5222 cures % (rat leukaemia L 5222) [%] | s.c. Walker T.W.I.% (tumor weight inhibition) [1] [%] | also measured
O=NN(CCCl)C(=O)NCCCO [Compound 7, 1-(3-hydroxypropyl)-CNU] | 10 | 0 | stability (for elementary analysis) (Stability): not stable enough for elementary analysis
O=NN(CCCl)C(=O)NCCCCCNC(=O)N(CCCl)N=O [Compound 4, 1,1'-pentamethylenebis-CNU] | 30 | 68 | 
O=NN(CCCl)C(=O)NCCNC(=O)N(CCCl)N=O [Compound 1, 1,1'-ethylenebis-CNU] | 60 | 75 | 
CS(=O)(=O)OCCNC(=O)N(CCCl)N=O [Compound 9] |  |  | activity against rat autochthonic DMBA-induced mammary carcinoma ([2]; animal test): excellent activity; activity against autochthonic DMBA-induced mammary carcinoma relative to Adriamycin / BCNU [2]: significantly exceeding that of "Adriamycin"
Cc1ccc(NC(=O)N(CCCl)N=O)cc1NC(=O)N(CCCl)N=O [1,1'-(4-methyl-m-phenylene)bis-CNU] | 0 | 35 | 
O=NN(CCCl)C(=O)NCCCNC(=O)N(CCCl)N=O [Compound 2, 1,1'-propylenebis-CNU] | 60 | 72 | 
NC(=O)CNC(=O)N(CCCl)N=O [Compound 10, 2-(3-(2-chloroethyl))-3-nitrosoureido acetamide] |  |  | activity against s.c. Walker carcinosarcoma relative to BCNU ([1]; preliminary animal test, comparison with BCNU): same activity against s.c. Walker carcinosarcoma as BCNU; activity against autochthonic DMBA-induced mammary carcinoma relative to Adriamycin / BCNU [2]: better activity than "Adriamycin" or BCNU; solubility in water relative to BCNU [3]: better solubility in water; delayed toxicity (Delayed toxicity): little delayed toxicity
O=NN(CCCl)C(=O)NCCCCO [Compound 8, 1-(4-hydroxybutyl)-CNU] | 5 | 4 | stability (for elementary analysis) (Stability): not stable enough for elementary analysis
O=NN(CCCl)C(=O)NCCCCCCNC(=O)N(CCCl)N=O [Compound 5, 1,1'-hexamethylenebis-CNU] | 50 | 70 | 
O=NN(CCCl)C(=O)NCCCl [BCNU, 1,3-bis-(2-chloroethyl)-1-nitroso urea, reference compound] | 70 | 83 | 
O=NN(CCCl)C(=O)NCCO [Compound 6, 1-(2-hydroxyethyl)-3-(2-chloroethyl)-3-nitroso urea] | 90 | 85 | chemotherapeutic activity against rat leukaemia L 5222 and s.c. Walker carcinosarcoma (in words) (rat leukaemia L 5222; summary of Table II, both tumor models): outstanding activity
O=NN(CCCl)C(=O)NCCCCNC(=O)N(CCCl)N=O [Compound 3, 1,1'-tetramethylenebis-CNU] | 75 | 77 | 

— US4150146A, “Process for the preparation of unsymmetrically 1,3-disubstituted nitroso ureas” (priority 1976, dated 1979)
